Publication PMC10747112, “Triphenylphosphine Derivatives of Allylbenzenes Express Antitumor and Adjuvant Activity When Solubilized with Cyclodextrin-Based Formulations” (Pharmaceuticals, 2023)

How the values were obtained:
[1] = test system: erythrocytes; assay: Hemolytic activity; type: cell-based; conditions: 0.1 mg/mL
Source text: (§1) Hemolytic activity and thrombogenicity are the primary parameters for evaluating the safety of medical formulations. The phenotypic sea urchin embryo assay developed by colleagues is a visual way to study the toxicity of formulations in vivo. The sea urchin and human genomes contain more than 7000 common genes, including orthologs associated with a number of human diseases. Therefore, sea urchins can be considered as a reliable and versatile model organism for studying the safety of new and existing cytotoxic formulations in vivo. Table 5 presents data on the % of erythrocyte hemolysis, the degree of whole blood thrombosis of apiol-PPh3 and analogues, and data of phenotypic sea urchin embryo assay. Thus, the non-toxicity of PPh3 derivatives of allylbenzenes for normal non-cancer cells, as well as the selectivity of action against cancer cells, is shown. The selectivity of cytotoxic action against cancer cells in comparison with normal cells can be explained by the fact that the PPh3- cation provides selective accumulation and reduction in the mitochondrial membrane potential of the transformed cancer cells. Cyclodextrin (M-β-CD) and heparin are non-toxic (and approved by the FDA for intravenous application).
(§2) The hemolytic activity and thrombogenicity of apiol-PPh3 and analogues were studied using an earlier published technique.

[2] = test system: whole blood; assay: Thrombogenicity (whole blood thrombosis); conditions: 0.1 mg/mL
Source text: as §1, §2

[3] = test system: HEK293T cells; assay: FTIR spectroscopy of HEK293T cells during incubation with drug (penetration/adsorption); type: cell-based, human; conditions: 60 min incubation (apiol-PPh3 in M-β-CD) or pre-incubation (doxorubicin controls); 37 °C
Source text: The main cell structural units that contribute to the absorption of IR diapason can be assigned as follows (Figure 5): lipids of the cell membrane (2800–3000 cm^−1), proteins, especially transmembrane (1500–1700 cm^−1), phosphate groups of DNA (1240 cm^−1) and carbohydrates, including lipopolysaccharides (900–1100 cm^−1). Previously, we developed a technique for tracking the penetration and adsorption of the drug into cells using FTIR spectroscopy: dramatic changes in the intensity of the peaks of amide 1 and amide 2 indicate effective penetration of the drug into cells and vice versa.
Here, we present the real-time data of FTIR spectroscopy during the incubation of a suspension of HEK293T cells with apiol-PPh3 in M-β-CD (Figure 5). […] There is only a shift of the peak of amide 1 to the low-frequency region (inserts in Figure 5, the normalized intensity is shown) and amide 2 to the high-frequency region with the simultaneous appearance of the shoulder. This indicates the only adsorption of drug molecules on the cell surface, which is also confirmed by a weak increase in the intensity of the peaks at 2850–3000 cm^−1 corresponding to the valence vibrations of the CH2 groups (lipid bilayer). Thus, PPh3 derivatives show only marginal activity against normal cells.

Structure (SMILES) | Hemolysis Index [1] [%] | Thrombosis Index [2] [%] | changes in FTIR amide I and II peak intensity of HEK293T cells (drug penetration) [3]
COc1cc(CCC[P+](c2ccccc2)(c2ccccc2)c2ccccc2)c(OC)c(OC)c1OC [Allyltetramethoxybenzene-PPh3] | 0.7 ± 0.1 | 0.7 ± 0.2 | –
COc1cc(CCC[P+](c2ccccc2)(c2ccccc2)c2ccccc2)c(OC)c2c1OCO2 [Apiol-PPh3] | 0.8 ± 0.2 | 1.1 ± 0.2 | practically no changes in the intensity of the peaks of amide I and II
COc1c(CCC[P+](c2ccccc2)(c2ccccc2)c2ccccc2)cc2c(c1OC)OCO2 [Dillapiol-PPh3] | 0.9 ± 0.2 | 1.0 ± 0.1 | –
COc1cc(CCC[P+](c2ccccc2)(c2ccccc2)c2ccccc2)cc2c1OCO2 [Myristicin-PPh3] | 0.5 ± 0.1 | 1.5 ± 0.2 | –
